In PubChem BioAssay AID330 (DTP/NCI, 2004):
“And” between values parts separate entries of the source, which are not always exact repeats. Identical values can stand only once. Toxic doses and inconclusive results are not listed.

System: P388 leukemia ip, CD2F1 mice, survival T/C
Experiment: NCI In Vivo Anticancer Drug Screen. Data for tumor model P388 Leukemia (intraperitoneal) in CD2F1 (CDF1) mice
Conditions: endpoint: median survival time, higher = longer survival
Outline: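 Mice carrying the transplanted tumor received test compound or vehicle. Survival was recorded in each group, and the value is the treated-group measurement divided by that of the vehicle-treated control group.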

[1] = dose: 50.0 mg/kg/injection, schedule: Q01DX009 (ip), vehicle: Klucel (hydroxypropylcellulose) (HPC)
[2] = dose: 100.0 mg/kg/injection, schedule: Q01DX009 (ip), vehicle: Klucel (hydroxypropylcellulose) (HPC)
[3] = dose: 200.0 mg/kg/injection, schedule: Q01DX009 (ip), vehicle: Klucel (hydroxypropylcellulose) (HPC)
[4] = dose: 60.0 mg/kg/injection, schedule: Q01DX005 (ip), vehicle: Klucel (hydroxypropylcellulose) (HPC)
[5] = dose: 120.0 mg/kg/injection, schedule: Q01DX005 (ip), vehicle: Klucel (hydroxypropylcellulose) (HPC)
[6] = dose: 240.0 mg/kg/injection, schedule: Q01DX005 (ip), vehicle: Klucel (hydroxypropylcellulose) (HPC)
[7] = dose: 50.0 mg/kg/injection, schedule: Q01DX009 (ip), vehicle: saline with Tween-80
[8] = dose: 100.0 mg/kg/injection, schedule: Q01DX009 (ip), vehicle: saline with Tween-80
[9] = dose: 12.5 mg/kg/injection, schedule: Q01DX009 (ip), vehicle: saline
[10] = dose: 25.0 mg/kg/injection, schedule: Q01DX009 (ip), vehicle: saline
[11] = dose: 100.0 mg/kg/injection, schedule: Q01DX001 (ip), vehicle: Klucel (hydroxypropylcellulose) (HPC)
[12] = dose: 200.0 mg/kg/injection, schedule: Q01DX001 (ip), vehicle: Klucel (hydroxypropylcellulose) (HPC)
[13] = dose: 400.0 mg/kg/injection, schedule: Q01DX001 (ip), vehicle: Klucel (hydroxypropylcellulose) (HPC)
[14] = dose: 50.0 mg/kg/injection, schedule: Q01DX005 (ip), vehicle: Klucel (hydroxypropylcellulose) (HPC)
[15] = dose: 50.0 mg/kg/injection, schedule: Q01DX005 (ip), vehicle: saline with Tween-80
[16] = dose: 100.0 mg/kg/injection, schedule: Q01DX005 (ip), vehicle: saline with Tween-80
[17] = dose: 200.0 mg/kg/injection, schedule: Q01DX005 (ip), vehicle: saline with Tween-80
[18] = dose: 100.0 mg/kg/injection, schedule: Q01DX005 (ip), vehicle: Klucel (hydroxypropylcellulose) (HPC)
[19] = dose: 100.0 mg/kg/injection, schedule: Q04DX003 (ip), vehicle: saline with Tween-80
[20] = dose: 200.0 mg/kg/injection, schedule: Q04DX003 (ip), vehicle: saline with Tween-80
[21] = dose: 400.0 mg/kg/injection, schedule: Q04DX003 (ip), vehicle: saline with Tween-80

CC(C)CC([N+](C)(C)C)P(=O)([O-])O (centres undefined)
T/C (dose: 100.0 mg/kg/injection, schedule: Q01DX009 (ip), vehicle: saline): 100 % of control | T/C (dose: 200.0 mg/kg/injection, schedule: Q01DX009 (ip), vehicle: saline): 95 % of control | T/C (dose: 400.0 mg/kg/injection, schedule: Q01DX009 (ip), vehicle: saline): 100 % of control

COc1cccc(C2NC(=S)NC(=O)C2C#N)c1 (centres undefined)
T/C [1]: 98 % of control | T/C [2]: 98 % of control | T/C [3]: 94 % of control

C=C1C(=O)O[C@H]2C[C@@H]1C(=O)C/C(C)=C/CC/C(C)=C/CC[C@@]2(C)OCSC
T/C (dose: 8.0 mg/kg/injection, schedule: Q01DX009 (ip), vehicle: Klucel (hydroxypropylcellulose) (HPC)): 116 % of control | T/C (dose: 16.0 mg/kg/injection, schedule: Q01DX009 (ip), vehicle: Klucel (hydroxypropylcellulose) (HPC)): 103 % of control | T/C (dose: 32.0 mg/kg/injection, schedule: Q01DX009 (ip), vehicle: Klucel (hydroxypropylcellulose) (HPC)): 111 % of control | T/C (dose: 64.0 mg/kg/injection, schedule: Q01DX009 (ip), vehicle: Klucel (hydroxypropylcellulose) (HPC)): 92 % of control

CCOC(=O)C(C)(C)S(=O)Nc1ccccc1 (centres undefined)
T/C [4]: 99 % of control | T/C [5]: 99 % of control | T/C [6]: 102 % of control

COc1cc(Br)cc(OC)c1N
T/C [7]: 97 % of control | T/C [8]: 100 % of control | T/C (dose: 200.0 mg/kg/injection, schedule: Q01DX009 (ip), vehicle: saline with Tween-80): 105 % of control

Cc1cc[n+](CC(N)=O)cc1
T/C [9]: 96 % of control | T/C [10]: 94 % of control | T/C (dose: 50.0 mg/kg/injection, schedule: Q01DX009 (ip), vehicle: saline): 96 % of control

Cc1c(Cl)cc([N+](=O)[O-])cc1S(=O)(=O)Oc1ccccc1
T/C [11]: 103 % of control | T/C [12]: 108 % of control | T/C [13]: 100 % of control

S=C(N/N=C/c1ccccn1)N/N=C/c1ccccn1
T/C (dose: 6.25 mg/kg/injection, schedule: Q01DX009 (ip), vehicle: saline): 117 % of control | T/C [9]: 103 % of control and 105 % of control | T/C (dose: 25.0 mg/kg/injection, schedule: Q01DX009 (ip), vehicle: distilled water + Tween-80): 97 % of control | T/C [10]: 109 % of control and 120 % of control

CCCCN=Cc1ccccc1O.CCCCN=Cc1ccccc1O.[Cu]
T/C [14]: 99 % of control

C[Si](C)(C)SCCS[Si](C)(C)C
T/C [15]: 98 % of control | T/C [16]: 98 % of control | T/C [17]: 95 % of control

O=C(Nc1ccc(Sc2ccc(N=Nc3c(O)c(S(=O)(=O)O)cc4cc(S(=O)(=O)O)ccc34)cc2)cc1)c1ccc(N=Nc2c(O)ccc3c(S(=O)(=O)O)cc(S(=O)(=O)O)cc23)cc1
T/C [14]: 102 % of control | T/C [18]: 97 % of control | T/C (dose: 200.0 mg/kg/injection, schedule: Q01DX005 (ip), vehicle: Klucel (hydroxypropylcellulose) (HPC)): 109 % of control

CCOC(=O)N1C=C(C(=O)OC)C(c2ccccc2)C(C(=O)OC)=C1
T/C [15]: 95 % of control | T/C [16]: 106 % of control | T/C [17]: 97 % of control

Cc1nn(-c2nc(-c3ccc(Br)cc3)cs2)c(C)c1C
T/C [1]: 105 % of control | T/C [2]: 106 % of control | T/C [3]: 105 % of control

Cc1ncc([N+](=O)[O-])n1CCn1nnc2c1CCCC2
T/C (dose: 25.0 mg/kg/injection, schedule: Q04DX003 (ip), vehicle: saline): 100 % of control and 109 % of control | T/C (dose: 50.0 mg/kg/injection, schedule: Q04DX003 (ip), vehicle: saline): 100 % of control and 109 % of control | T/C (dose: 100.0 mg/kg/injection, schedule: Q04DX003 (ip), vehicle: saline): 115 % of control and 96 % of control | T/C (dose: 200.0 mg/kg/injection, schedule: Q04DX003 (ip), vehicle: saline): 99 % of control and 115 % of control

CNC1NC(=O)c2ccccc2N1Cc1ccc(F)cc1 (centres undefined)
T/C [4]: 94 % of control | T/C [5]: 92 % of control | T/C [6]: 94 % of control

COc1cccc2c1NC(OC)C1CC(/C=C/C(=O)N(C)C)=CN1C2=O (centres undefined)
T/C (dose: 320.0 micrograms/kg/injection, schedule: Q01DX005 (ip), vehicle: saline with Tween-80): 155 % of control

CS(=O)(=O)OCCN(CCOS(C)(=O)=O)c1ccc([N+](=O)[O-])cc1[N+](=O)[O-]
T/C [11]: 88 % of control | T/C [12]: 100 % of control | T/C [13]: 103 % of control

CCOC(=O)C1=CC(Oc2cc(NS(=O)(=O)c3ccccc3)ccc2O)C(C(=O)OCC)=CC1Oc1cc(NS(=O)(=O)c2ccccc2)ccc1O (centres undefined)
T/C (dose: 37.5 mg/kg/injection, schedule: Q01DX001 (ip), vehicle: saline with Tween-80): 105 % of control | T/C (dose: 75.0 mg/kg/injection, schedule: Q01DX001 (ip), vehicle: saline with Tween-80): 100 % of control | T/C (dose: 150.0 mg/kg/injection, schedule: Q01DX001 (ip), vehicle: saline with Tween-80): 100 % of control

CC[C@@H]1C[C@H]2CC3c4[nH]c5ccc(O)cc5c4CCN(C2)C31
T/C (dose: 100.0 mg/kg/injection, schedule: Q01DX001 (ip), vehicle: saline with Tween-80): 99 % of control

N#CN(Cc1ccccc1)Cc1ccccc1.[Br][Sn]([c]1ccccc1)([c]1ccccc1)[c]1ccccc1
T/C (dose: 3.12 mg/kg/injection, schedule: Q01DX005 (ip), vehicle: saline with Tween-80): 100 % of control | T/C (dose: 6.25 mg/kg/injection, schedule: Q01DX005 (ip), vehicle: saline with Tween-80): 100 % of control | T/C (dose: 12.5 mg/kg/injection, schedule: Q01DX005 (ip), vehicle: saline with Tween-80): 91 % of control | T/C [15]: 114 % of control

CCOC(CCC1=NC(C)(C)CC(C)O1)OCC (centres undefined)
T/C (dose: 100.0 mg/kg/injection, schedule: Q01DX001 (ip), vehicle: saline sonified): 110 % of control | T/C (dose: 200.0 mg/kg/injection, schedule: Q01DX001 (ip), vehicle: saline sonified): 100 % of control | T/C (dose: 400.0 mg/kg/injection, schedule: Q01DX001 (ip), vehicle: saline sonified): 90 % of control

CC(=O)/C=C\c1ccc(Cl)cc1
T/C [7]: 100 % of control | T/C [8]: 91 % of control | T/C [19]: 113 % of control | T/C [20]: 98 % of control | T/C [21]: 91 % of control

CCC(Br)C1C/C=C\CC2OC(C=C=CBr)CC2O1 (centres undefined)
T/C (dose: 3.12 mg/kg/injection, schedule: Q01DX005 (ip), vehicle: Klucel (hydroxypropylcellulose) (HPC)): 100 % of control | T/C (dose: 3.75 mg/kg/injection, schedule: Q01DX001 (ip), vehicle: Klucel (hydroxypropylcellulose) (HPC)): 94 % of control | T/C (dose: 6.25 mg/kg/injection, schedule: Q01DX005 (ip), vehicle: Klucel (hydroxypropylcellulose) (HPC)): 95 % of control and 98 % of control | T/C (dose: 7.5 mg/kg/injection, schedule: Q01DX001 (ip), vehicle: Klucel (hydroxypropylcellulose) (HPC)): 90 % of control | T/C (dose: 12.5 mg/kg/injection, schedule: Q01DX005 (ip), vehicle: Klucel (hydroxypropylcellulose) (HPC)): 95 % of control and 104 % of control | T/C (dose: 15.0 mg/kg/injection, schedule: Q01DX001 (ip), vehicle: Klucel (hydroxypropylcellulose) (HPC)): 91 % of control | T/C (dose: 25.0 mg/kg/injection, schedule: Q01DX005 (ip), vehicle: Klucel (hydroxypropylcellulose) (HPC)): 91 % of control and 100 % of control | T/C (dose: 30.0 mg/kg/injection, schedule: Q01DX001 (ip), vehicle: Klucel (hydroxypropylcellulose) (HPC)): 91 % of control | T/C [14]: 98 % of control | T/C [18]: 96 % of control

O=C(c1ccc(Cl)cc1)n1c(Cl)c(/C=N\Nc2ccc([N+](=O)[O-])cc2)c2ccccc21
T/C [19]: 94 % of control | T/C [20]: 97 % of control | T/C [21]: 92 % of control

CC(C)CC(O)C(CC(=O)Nc1ccccc1)S(=O)(=O)c1ccccc1 (centres undefined)
T/C [15]: 100 % of control | T/C [16]: 92 % of control | T/C [17]: 86 % of control

COc1ccc(S(=O)(=O)F)cc1NC(C)=O
T/C [4]: 105 % of control | T/C [5]: 101 % of control

COC(=O)c1cc(=O)n(-c2ccc(OC)cc2)c(SC)n1
T/C [19]: 100 % of control | T/C [20]: 91 % of control

CCCCCCCCC(=O)C(=O)c1ccc(O)c(C)c1O
T/C [1]: 112 % of control | T/C [2]: 109 % of control | T/C [3]: 110 % of control
